Experimental data reported in patent publication US9435795B2, “Enhanced deposition of chromogens utilizing pyrimidine analogs” (Ventana Medical Systems, Inc., priority 2010, dated 2016).

Legend:
[1] = target: T1, horseradish peroxidase (HRP) (Armoracia rusticana, UniProt P00433); experiment: Plate assay: kinetic screening of enhancers of HRP-mediated DAB oxidation (ultraView Detection Kit, OD 455 nm); format: biochemical; conditions: for Vmax (apparent, HRP-oxidized DAB): no enhancer 18.50; for Percent increase of apparent Vmax of HRP: relative to uView Vmax without enhancement
T1 construct: purchased VMSI (Ventana Medical Systems, Inc.) 760-500: 253-4290, 253-4292 and 253-4293
Protocol: The additives were directly added to a well containing the necessary reagents from the ultraView™ Detection Kit (VMSI 760-500: 253-4290, 253-4292 and 253-4293) in 1× Reaction Buffer (VMSI 950-300) and 0.1% fish gelatin. Fish gelatin was used to help disperse the oxidized DAB and inhibit its precipitation from solution. The ultraView™ Detection Kit was diluted to measure the formation of oxidized DAB by UV-VIS at 455 nm. Additives were tested at set concentrations to determine enhancement in the DAB oxidation reaction. The data were graphed, and the apparent maximum velocity (Vmax) was calculated at each additive concentration level.

[2] = Compatibility and stability of reformulated DAB Chromogen solution with additive; format: physicochemical; conditions: higher concentrations of imidazole; 50 mM L-histidine
[3] = target: T1, horseradish peroxidase (HRP); experiment: Plate assay: enhancers added sequentially to ultraView Detection Kit (synergistic/antagonistic effects); format: biochemical; conditions: NMO added to mixture 4; 50 mM L-histidine or 10 mM pyrimidine added to mixture 5
Protocol: The same concentration of reagents from the ultraView™ Detection Kit (VMSI 760-500: 253-4290, 253-4292 and 253-4293) were used in 1× Reaction Buffer™ containing 0.1% fish gelatin for each trial. In each trial, the enhancers were added together one at a time.

ultraView HRP multimer = target: T2, ultraView HRP multimer (Armoracia rusticana, UniProt P00433); experiment: Michaelis-Menten kinetics of HRP-oxidized DAB with enhanced DAB chromogen mixtures; format: biochemical, horseradish
T2 construct: purchased Ventana Medical Systems (ultraView kit component)
T2 sequence (P00433 31-338 limits assumed): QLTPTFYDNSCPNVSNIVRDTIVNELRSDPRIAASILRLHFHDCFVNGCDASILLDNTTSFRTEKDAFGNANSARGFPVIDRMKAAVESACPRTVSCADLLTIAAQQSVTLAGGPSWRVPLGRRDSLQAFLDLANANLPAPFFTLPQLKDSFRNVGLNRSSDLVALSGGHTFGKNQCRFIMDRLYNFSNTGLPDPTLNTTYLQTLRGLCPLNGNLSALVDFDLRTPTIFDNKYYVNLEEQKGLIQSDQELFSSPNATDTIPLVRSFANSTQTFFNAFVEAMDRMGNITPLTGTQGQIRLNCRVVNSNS
Protocol: To further study the synergistic effect in the increased apparent Vmax for HRP-oxidized DAB, Michaelis-Menten kinetics were calculated for the best enhanced DAB chromogen mixtures in Table 3. […] The definition of Vmax=kcat·[E]total when the enzyme substrate concentration was at saturation levels. When the concentration of enzyme was kept constant, the apparent Vmax is proportional to kcat (the apparent turnover for HRP or the first order rate constant).

[4] = tested on: HER-2 positive CaLu3 carcinoma cell lines; experiment: ISH tissue staining with HER2 DNA probe on HER-2 3-in-1 mouse xenografts; conditions: 10 mM in DAB Chromogen solution; CaLu3 carcinoma cells
Protocol: ISH tissue staining was examined using enhanced DAB solutions. HER-2 3-in-1 mouse xenografts of HER-2 positive carcinoma cell lines CaLu3, ZR-75-1 and MCF7 were treated with HER2 DNA probe (VMSI 480-4495) and stained with the ultraView™ DAB Chromogen solution or an enhanced DAB Chromogen solution containing 10 mM L-histidine (see FIGS. 21-22). […] The increased DAB deposition was marginal for the strongest ISH signals, but signal intensity for the weaker DAB signals was raised throughout the tissue. The same observation was made with enhanced DAB deposition in IHC.

bcl2 in tonsil tissue = experiment: TSA-IHC tissue staining of bcl2 in tonsil tissue (TA-HQ deposition); conditions: 10 mM in DAB Chromogen solution; 16 minute primary Ab incubation
Protocol: Enhanced DAB deposition was evaluated on a TSA-IHC tissue staining of bcl2 in tonsil tissue. […] Tyramide deposition was performed with and without 10 mM 2-hydroxypyrimidine. […] The percent of cells stained with DAB increased in areas with low bcl2 antigen expression. Formalin fixed paraffin embedded tonsil tissue was mounted on Superfrost slides, deparaffinized and antigen retrieved using CC1 bulk reagent (Ventana® p/n 950-124). […] Slides were counterstained using Hematoxylin II (Ventana® p/n 790-2208) and Bluing Reagent (Ventana® p/n760-2037). The slides were dehydrated using gradient alcohols, cover slipped and viewed using a bright field microscope (FIGS. 23-26).

Vmax (apparent, HRP-oxidized DAB) ([1]; enhancer 10 mM): 21.84 mOD/min
Percent increase of apparent Vmax of HRP ([1]; enhancer 10 mM): 18%
Vmax (apparent, HRP-oxidized DAB) ([1]; enhancer 50 mM, (sat) = reaction rate saturated by start of UV-VIS analysis): 44.00 mOD/min
Percent increase of apparent Vmax of HRP ([1]; enhancer 50 mM): 138%
Vmax (apparent, HRP-oxidized DAB) ([1]; enhancer 100 mM, (sat) = reaction rate saturated by start of UV-VIS analysis): 72.00 mOD/min
Precipitation of DAB from reformulated DAB Chromogen solution [2]: caused the precipitation of DAB
Effect on apparent velocity of HRP when added to a preceding assay mixture of Table 2 [3]: increased the apparent velocity of HRP
Vmax (ultraView HRP multimer; 10 mM buffer salt with 10 mM pyrimidine, no enhancer 228): 300 mOD/min
Vmax (ultraView HRP multimer; 50 mM buffer salt with 10 mM 2-hydroxypyrimidine (FIG. 19: also 10 mM boric acid, 10 mM calcium chloride)): 317 mOD/min
Compound: N[C@@H](Cc1c[nH]cn1)C(=O)O [L-Histidine]
DAB deposition in ISH staining (in words) [4]: increased the deposition of DAB
DAB deposition in TSA-IHC staining (in words) (bcl2 in tonsil tissue): increased the DAB deposition on tissue
